Tests used:
HBV-RNA in the serum = assay: Amount of HBV-RNA in the serum, estimated by subtracting HBV-DNA from HBV gene; assay type: in vivo, HBV patient; details: one month before administration 5.4 × 10^6
Procedure: In order to measure the amount of HBV gene in the serum, the step of the reverse transcriptase reaction was added. To 10 μl of the HBV gene solution, 1 μl of 20 mM dNTP Mix (10 mM dATP, 10 mM dGTP, 10 mM dCTP, 10 mM dTTP) and 0.2 μl of 10 μM HBS-R primer were mixed, and after incubated at 65° C. for 5 minutes, it was quickly cooled on ice. Four μl of 5× reverse transcription buffer [250 mM Tris-HCl (pH 8.3), 375 mM KCl, 15 mM MgCl2], 0.2 μl of 0.1 M DTT, 0.6 μl of RNase inhibitor (40 units/μl) and 3 μl of sterile water were mixed and then subjected to an annealing reaction at 42° C. for 2 minutes, to which 1 μl of the reverse transcriptase (200 units/μl) was added to prepare a 20 μl of a reaction mixture, which was subjected to a reverse transcription reaction at 42° C. for 50 minutes and the inactivation of the reverse transcriptase was performed at 70° C. for 15 minutes.
By applying 4 μl of this reaction mixture to the above HBV-DNA quantification system, the amount of the HBV gene in the serum, i.e. the total amount of HBV-DNA and RNA in the serum, can be measured. Also, by subtracting the amount of HBV-DNA from the amount of the HBV gene, the amount of HBV-RNA in the serum can be estimated (Table 1).

[1] = system: HBV gene (HBV-DNA and RNA) in the serum; assay: Quantification of the HBV gene (DNA+RNA) in the serum by reverse transcription plus TaqMan PCR; assay type: in vivo, HBV patient; details: one month before administration 7.8 × 10^6
Procedure: (§1) In order to isolate the HBV gene in Dane particles (the infective HBV particle: the complete HBV particle), the HBV gene in a serum from a HBV patient was purified using High Pure Viral Nucleic Acid kit (Roche Diagnostics) in the following method. One hundred μl of the serum from a HBV patient who received lamivudine treatment was mixed with 100 μl of the serum from a normal healthy subject to prepare 200 μl of a serum sample. To the serum sample, 200 μl of a working solution {50 μl of poly(A) carrier RNA (4 mg/ml) and 2.5 ml of the binding buffer [6 M guanidine-HCl, 10 mM urea, 10 mM Tris-HCl (pH 4.4), 20% Triton X-100 (v/v)]} and 50 μl of Proteinase K (18 mg/ml) were added and mixed, and incubated at 72° C. for 10 minutes.
(§2) One hundred μl of isopropanol and the sample were mixed, and the mixture was transferred into a High Pure filter tube. It was centrifuged at 8000 rpm for 1 minute, and after discarding the flowthrough, 500 μl of the inhibitor removal buffer [5 M guanidine-HCl, 20 mM Tris-HCl (pH 6.6)] was injected and then centrifuged at 8000 rpm for 1 minute. After adding 450 μl of the washing buffer [20 mM NaCl, 2 mM Tris-HCl (pH 7.5)], it was centrifuged at 8000 rpm for 1 minute. Then it was washed again in 450 μl of the washing buffer and was centrifuged at 13000 rpm for 10 seconds. Fifty μl of sterile water was added to the filter tube, which was centrifuged at 8000 rpm for 1 minute, and the flowthrough was collected to prepare a solution of the HBV gene in the serum.
In order to measure the amount of HBV gene in the serum, the step of the reverse transcriptase reaction was added. To 10 μl of the HBV gene solution, 1 μl of 20 mM dNTP Mix (10 mM dATP, 10 mM dGTP, 10 mM dCTP, 10 mM dTTP) and 0.2 μl of 10 μM HBS-R primer were mixed, and after incubated at 65° C. for 5 minutes, it was quickly cooled on ice. […]
By applying 4 μl of this reaction mixture to the above HBV-DNA quantification system, the amount of the HBV gene in the serum, i.e. the total amount of HBV-DNA and RNA in the serum, can be measured. […]

HBc antigen = assay: Measurement of the amount of HBc antigen (sandwich immunoassay, luminescence); assay type: in vivo, HBV patient; details: serum, before administration 610
Excerpt: Three monoclonal antibodies HB44 (recognition site: amino acids 31-49), HB61 (recognition site: amino acids 131-140) and HB114 (recognition site: amino acids 1-81) that react both HBc antigen and HBe antigen were coated and immobilized to a microtiter plate. After washing with PBS, it was blocked with a solution containing casein and, after removing the solution, it was dried.
Fifty μl of the pretreatment solution (15% sodium dodecyl sulfate [SDS], 3% CHAPS, 1% hexadecyltrimethyl ammonium bromide) was mixed with 100 μl of the sample (serum, plasma etc.) and treated at 70° C. for 30 minutes.
To each antibody-immobilized well, 100 μl of the reaction buffer (pH 8.0) and 50 μl of the pretreated sample were added, and the plate was reacted under gentle stirring at room temperature for 2 hours.
After washing the wells, 100 μl of a solution containing alkaline phosphatase-labelled HB50 (recognition site: amino acids 168-176) monoclonal antibody was added to each well, and the plate was incubated at room temperature for 1 hour.
After washing the wells, 100 μl of the CDP Star with Emerald II (Applied Biosystems) was added, and the intensity of luminescence after reacting at room temperature for 20 minutes was measured using a microtiter plate luminometer. It was compared to the intensity of luminescence of the standard antigen and the concentration of HBc antigen in the sample was calculated (Table 1).

HBV-DNA in the serum = assay: Quantification of HBV-DNA in the serum by TaqMan PCR, patient under lamivudine treatment; assay type: in vivo; details: one month before administration 2.4 × 10^6
Procedure: as §1, §2
The quantification of HBV-DNA in the serum was performed by the TaqMan PCR method that employs the Light Cycler (Roche Diagnostics). […]
The condition included pretreatment at 95° C. for 10 minutes, DNA denaturation at 95° C. for 5 seconds, annealing at 60° C. for 15 seconds and DNA synthesis at 72° C. for 8 seconds, and fluorescence emitted from the TaqMan probe was measured to quantify the amount of HBV-DNA in the serum (Table 1).

SMILES: Nc1ccn([C@@H]2CS[C@H](CO)O2)c(=O)n1 [lamivudine]
- Amount of HBV-RNA (HBV-RNA in the serum; 8 months after administration): 7.1 × 10^3 copies/ml
- Amount of HBV-RNA (HBV-RNA in the serum; 19 months after administration): 2.2 × 10^3 copies/ml
- Amount of HBV-RNA (HBV-RNA in the serum; one month after administration): 1.0×10^5 copies/ml
- Amount of HBV gene ([1]; 8 months after administration): 7.2 × 10^3 copies/ml
- Amount of HBV gene ([1]; 19 months after administration): 2.2 × 10^3 copies/ml
- Amount of HBV gene ([1]; one month after administration): 1.1 × 10^5 copies/ml
- Amount of HBc antigen (HBc antigen; 8 months after administration): 21 pg/mL
- Amount of HBc antigen (HBc antigen; 19 months after administration): 20 pg/mL
- Amount of HBc antigen (HBc antigen; one month after administration): 56 pg/mL
- Amount of HBV-DNA (HBV-DNA in the serum; 8 months after administration): 1.0 × 10^2 copies/ml
- Amount of HBV-DNA (HBV-DNA in the serum; 19 months after administration): 0 copies/ml
- Amount of HBV-DNA (HBV-DNA in the serum; one month after administration of lamivudine): 6.1×10^3 copies/ml
